We go through 18 molecules from patent US10913738B2 (BRISTOL-MYERS SQUIBB COMPANY, priority 2017, dated 2021).

pIC50: −log10 of the molar value. Read-outs that look alike come from different tables or passages of the source.

In test [1] the target is T1, His-GST-TVMV-hRIPK1(1-324) (Homo sapiens, UniProt Q13546).
T1 construct: The coding region of human RIPK1(1-324) flanked by NdeI site at 5′ end; made in house; host or cells: Spodoptera frugiperda (Sf9) insect cells, baculovirus
T1 sequence (Q13546 1-324): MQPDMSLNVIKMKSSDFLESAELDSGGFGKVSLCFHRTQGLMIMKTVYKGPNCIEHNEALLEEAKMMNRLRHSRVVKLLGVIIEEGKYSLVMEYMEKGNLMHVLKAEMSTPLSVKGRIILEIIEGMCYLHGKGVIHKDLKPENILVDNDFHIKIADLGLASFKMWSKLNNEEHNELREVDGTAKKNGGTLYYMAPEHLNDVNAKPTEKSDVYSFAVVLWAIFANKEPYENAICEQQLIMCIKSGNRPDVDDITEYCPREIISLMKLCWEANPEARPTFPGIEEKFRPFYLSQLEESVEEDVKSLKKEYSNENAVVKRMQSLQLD
Briefly: RIPK1 HTRF Binding Assay. As for the experimental part: The plate was incubated at rt for 1 h.
Cloning and Baculovirus Expression of RIPK1 Construct
Baculovirus was generated for the construct using the Bac-to-Bac baculovirus expression system (Invitrogen) according to the manufacturer's protocol. Briefly, recombinant bacmid was isolated from transformed DH10Bac E. coli competent cells (Invitrogen) and used to transfect Spodoptera frugiperda (Sf9) insect cells (Invitrogen). Baculovirus was harvested 72 hours post transfection and a virus stock was prepared by infecting fresh Sf9 cells at a 1/1000 (v/v) ratio for 66 hours.
The production was carried out either at a 10 L scale in a 22 L cellbag (GE Healthcare Bioscience, Pittsburgh, Pa.) or at a 20 L scale in a 50 L cellbag using WAVE-Bioreactor System 20/50 (GE Healthcare Bioscience). The infected cells were harvested by centrifugation at 2000 rpm for 20 min at 4° C. in a SORVALL® RC12BP centrifuge. The cell pellets was stored at −70° C. before protein was purified.
RIPK1 containing cell paste was resuspended in 50 mM Tris pH 7.5, 150 mM NaCl, 10 mM imidazole, 5% glycerol, 5 mM MgSO4, 1 mM TCEP, 25 U/ml Benzonase, and Complete Protease Inhibitor tablets (1/50 ml, Roche Diagnostics, Indianapolis, Ind.). […] The suspension was clarified by centrifugation at 136,000×g for 40 min, at 4° C. The lysate was decanted from the pellet and passed through a 5 ml NiNTA Superflow cartridge (Qiagen, Valencia, Calif.) using an AKTA Pure (GE Healthcare). Column was eluted with 10 CV linear gradient into 50 mM Tris 7.5, 150 mM NaCl, 500 mM imidazole, 5% glycerol, 1 mM TCEP. Peak fractions were pooled and loaded directly onto 5 ml GSTrap 4B column (GE Healthcare). Column was washed with 50 mM Tris 7.0, 150 mM NaCl, 5% glycerol, 1 mM DTT and eluted in 10 CV linear gradient into 50 mM Tris 8.0, 150 mM NaCl, 20 mM reduced glutathione, 5% glycerol, 1 mM DTT. Fractions identified by SDS-PAGE as containing RIPK1 were pooled and concentrated using 30 kDa MWCO spin concentrators (Amicon Ultra-15, Millipore, Billerica, Mass.) and loaded onto a HiLoad 26/600 Superdex 200 column (GE Healthcare) equilibrated in 25 mM Tris 7.5, 150 mM NaCl, 2 mM TCEP, 5% glycerol.
Protein was aliquoted and stored at −80° C.

The test system of test [2] is MLKL phosphorylation in HT29-L23 human colorectal adenocarcinoma cells. Briefly: MLKL Phosphorylation High-Content Assay. It is filed as cell-based. The settings on record: Homo sapiens. As for the experimental part: MLKL Phosphorylation High-Content Assay
Following six hours incubation at 37° C. […] MLKL phosporylation was detected using anti-MLKL (phospho S358) antibody (Abcam #ab187091) (1:1000 dilution in Blocking Buffer [PBS supplemented with 0.1% BSA]) with overnight incubation at 4° C. […] Following another three cycles of washes in PBS, the microplates were sealed, and cellular images were acquired in the Cellomics ArrayScan VTI high-content imager equipped with an X1 camera. […] The image sets were analyzed using the Compartmental Analysis Bioapplication software (Cellomics). The level of MLKL phosphorylation was quantified as MEAN CircRingAvgIntenRatio. […] The data were fitted using the 4-parameter logistic equation to calculate the IC50 and Ymax values.

[3] abbreviates: x marks IC50 class <20 nM, read-out: RIPK1 HTRF binding <20 nM.
Where [4] appears, read: x marks IC50 class <20 nM, read-out: pMLKL cell activity <20 nM.
[5] abbreviates: x marks IC50 class 20-200 nM, read-out: RIPK1 HTRF binding 20-200 nM.
[6] abbreviates: x marks IC50 class 20-200 nM, read-out: pMLKL cell activity 20-200 nM.
Setting [7] is: x marks IC50 class >200 nM, read-out: pMLKL cell activity >200 nM.

For `[2H]C([2H])([2H])Oc1nc(C)c(-c2ccn3nc(N)nc3c2)cc1C(=O)NC(C)c1ccccc1OC(F)(F)F` (single isomer, unassigned) [Example 98-2, 5-{2-amino-[1,2,4]triazolo[1,5-a]pyridin-7-yl}-2-(deutero)methoxy-6-methyl-N-{1-[2-(trifluoromethoxy)phenyl]ethyl}pyridine-3-carboxamide], the pIC50 in test [1] (setting [3]) and in test [2] (setting [4]) was greater than 7.70 each time.

As to `Cc1ncc(-c2ccn3nc(N)nc3c2)cc1C(=O)NC(C)c1cc(C(F)(F)F)ccc1F` (single isomer, unassigned) [Example 99-1, 5-{2-amino-[1,2,4]triazolo[1,5-a]pyridin-7-yl}-N-{1-[2-fluoro-5-(trifluoromethyl)phenyl]ethyl}-2-methylpyridine-3-carboxamide], the pIC50 in test [1] (setting [5]) and in test [2] (setting [6]) was 6.70 to 7.70 throughout.

Take `Nc1nc2cc(-c3cnc(Cl)c(C(=O)NCc4ccc(F)cc4OCC4CC4)c3)ccn2n1` [Example 1, 5-(2-Amino-[1,2,4]triazolo[1,5-a]pyridin-7-yl)-2-chloro-N-([2-(cyclopropylmethoxy)-4-fluorophenyl]methyl)pyridine-3-carboxamide]: the pIC50 in test [1] (x marks IC50 class >200 nM, read-out: RIPK1 HTRF binding >200 nM) was less than 6.70; in test [2] (setting [7]), less than 6.70.

Consider `[2H]C([2H])(NC(=O)c1cc(-c2ccn3nc(N)nc3c2)cnc1OC)c1ccccc1OC(F)(F)F` [Example 2, 5-{2-Amino-[1,2,4]triazolo[1,5-a]pyridin-7-yl}-2-methoxy-N-{[2-(trifluoromethoxy)phenyl](^2H)methyl}pyridine-3-carboxamide], for which the pIC50 in test [1] (setting [5]) and in test [2] (setting [6]) was 6.70 to 7.70 each time.

Consider `COc1nc(C)c(-c2ccn3nc(N)nc3c2)cc1C(=O)NCc1ccccc1OCC1CC(=O)C1` [Example 3, 5-{2-Amino-[1,2,4]triazolo[1,5-a]pyridin-7-yl}-2-methoxy-6-methyl-N-({2-[(3-oxocyclobutyl)methoxy]phenyl}methyl)pyridine-3-carboxamide], for which the pIC50 in test [1] (setting [5]) and in test [2] (setting [6]) was 6.70 to 7.70 each time.

As for `COc1nc(C)c(-c2ccn3nc(N)nc3c2)cc1C(=O)NCc1ccccc1OCC1CC(F)(F)C1` [Example 4, 5-{2-Amino-[1,2,4]triazolo[1,5-a]pyridin-7-yl}-N-({2-[(3,3-difluorocyclobutyl)methoxy]phenyl}methyl)-2-methoxy-6-methylpyridine-3-carboxamide], the pIC50 in test [1] (setting [3]) was greater than 7.70; in test [2] (setting [6]), 6.70 to 7.70.

For the molecule `Cc1ncc(-c2ccn3nc(N)nc3c2)cc1C(=O)NCc1ccccc1OC1CCOCC1` [Example 5, 5-{2-Amino-[1,2,4]triazolo[1,5-a]pyridin-7-yl}-2-methyl-N-{[2-(oxan-4-yloxy)phenyl]methyl}pyridine-3-carboxamide], the pIC50 in test [1] (setting [3]) is greater than 7.70; in test [2] (setting [6]) it was 6.70 to 7.70.

Consider `COc1nc(C)c(-c2ccn3nc(N)nc3c2)cc1C(=O)NCc1ccccc1OC1CCOC1` (stereo not drawn) [Example 6, 5-{2-Amino-[1,2,4]triazolo[1,5-a]pyridin-7-yl}-2-methoxy-6-methyl-N-{[2-(oxolan-3-yloxy)phenyl]methyl}pyridine-3-carboxamide], for which the pIC50 in test [1] (setting [3]) and in test [2] (setting [4]) was greater than 7.70 each time.

Turning to `COc1nc(C)c(-c2ccn3nc(N)nc3c2)cc1C(=O)NCc1ccccc1OCC1CCCCC1` [Example 7, 5-{2-Amino-[1,2,4]triazolo[1,5-a]pyridin-7-yl}-N-{[2-(cyclohexylmethoxy)phenyl]methyl}-2-methoxy-6-methylpyridine-3-carboxamide], the pIC50 in test [1] (setting [3]) was greater than 7.70; in test [2] (setting [6]), 6.70 to 7.70.

Regarding `COc1nc(C)c(-c2ccn3nc(N)nc3c2)cc1C(=O)NCc1cccnc1OCC1CCCC1` [Example 8, 5-{2-Amino-[1,2,4]triazolo[1,5-a]pyridin-7-yl}-N-{[2-(cyclopentylmethoxy)pyridin-3-yl]methyl}-2-methoxy-6-methylpyridine-3-carboxamide], the pIC50 in test [1] (setting [3]) is greater than 7.70; in test [2] (setting [6]), 6.70 to 7.70.

For the molecule `COc1nc(C)c(-c2ccn3nc(N)nc3c2)cc1C(=O)NCc1cc(F)cc(F)c1OCC1CC1` [Example 9, 5-{2-Amino-[1,2,4]triazolo[1,5-a]pyridin-7-yl}-N-{[2-(cyclopropylmethoxy)-3,5-difluorophenyl]methyl}-2-methoxy-6-methylpyridine-3-carboxamide], the pIC50 in test [1] (setting [3]) and in test [2] (setting [4]) was greater than 7.70 throughout.

For the molecule `COc1ncc(-c2ccn3nc(N)nc3c2)cc1C(=O)NCc1ccccc1OCC1CCC(C)CC1` (stereo not drawn) [Example 10, 5-{2-Amino-[1,2,4]triazolo[1,5-a]pyridin-7-yl}-2-methoxy-N-({2-[(4-methylcyclohexyl)methoxy]phenyl}methyl)pyridine-3-carboxamide], the pIC50 in test [1] (setting [5]) is 6.70 to 7.70; in test [2] (setting [7]), less than 6.70.

Regarding `COc1nc(C)c(-c2ccn3nc(N)nc3c2)cc1C(=O)NCc1ccccc1OCC1CCC(F)(F)CC1` [Example 11, 5-{2-Amino-[1,2,4]triazolo[1,5-a]pyridin-7-yl}-N-({2-[(4,4-difluorocyclohexyl)methoxy]phenyl}methyl)-2-methoxy-6-methylpyridine-3-carboxamide], the pIC50 in test [1] (setting [3]) was greater than 7.70; in test [2] (setting [7]), less than 6.70.

With `Cc1ncc(-c2ccn3nc(N)nc3c2)cc1C(=O)NCc1ncccc1OCC1CCCC1` [Example 12, 5-{2-amino-[1,2,4]triazolo[1,5-a]pyridin-7-yl}-N-{[3-(cyclopentylmethoxy)pyridin-2-yl]methyl}-2-methylpyridine-3-carboxamide], the values for the pIC50 in test [1] (setting [3]) and in test [2] (setting [6]) were greater than 7.70 and 6.70 to 7.70, respectively.

For `CCOc1ncc(-c2ccn3nc(N)nc3c2)cc1C(=O)NCc1c(F)cc(F)cc1OCC1CCCC1` [Example 13, 5-{2-Amino-[1,2,4]triazolo[1,5-a]pyridin-7-yl}-N-{[2-(cyclopentylmethoxy)-4,6-difluorophenyl]methyl}-2-ethoxypyridine-3-carboxamide], the values for the pIC50 in test [1] (setting [5]) and in test [2] (setting [7]) were 6.70 to 7.70 and less than 6.70, respectively.

As to `CCOc1ncc(-c2ccn3nc(N)nc3c2)cc1C(=O)NCc1cc(F)cc(F)c1OCC1CCCC1` [Example 14, 5-{2-Amino-[1,2,4]triazolo[1,5-a]pyridin-7-yl}-N-{[2-(cyclopentylmethoxy)-3,5-difluorophenyl]methyl}-2-ethoxypyridine-3-carboxamide], the pIC50 in test [1] (setting [3]) is greater than 7.70; in test [2] (setting [6]) it was 6.70 to 7.70.

Turning to `Cc1ncc(-c2ccn3nc(N)nc3c2)cc1C(=O)NCc1c(F)cccc1OCC1CCCC1` [Example 15, 5-{2-Amino-[1,2,4]triazolo[1,5-a]pyridin-7-yl}-N-{[2-(cyclopentylmethoxy)-6-fluorophenyl]methyl}-2-methylpyridine-3-carboxamide], the pIC50 in test [1] (setting [3]) and in test [2] (setting [4]) was greater than 7.70 throughout.

As for `Cc1nc(C)c(-c2ccn3nc(N)nc3c2)cc1C(=O)NCc1ccccc1OC(C)C1CCCC1` (stereo not drawn) [Example 16, 5-{2-Amino-[1,2,4]triazolo[1,5-a]pyridin-7-yl}-N-{[2-(1-cyclopentylethoxy)phenyl]methyl}-2,6-dimethylpyridine-3-carboxamide], the results for the pIC50 in test [1] (setting [3]) and in test [2] (setting [6]) were greater than 7.70 and 6.70 to 7.70, respectively.
